Results: US5506359A, “Cocaine analogues and their use as cocaine drug therapies and therapeutic and imaging agents for neurodegenerative disorders” (priority 1993, dated 1996)
Where two headings read alike, the source gives them in different places.

Columns and labels:
[1] = target: T1, dopamine transporter ([^3 H]CFT binding sites, primate caudate-putamen) (Macaca fascicularis, UniProt Q9GJT6); experiment: Inhibition of [^3 H]CFT binding in monkey caudate-putamen membranes (Table 2); parameters: species or system cynomolgus monkeys (Macaca fascicularis)
T1 construct: from tissue; host or cells: caudate-putamen membranes of cynomolgus monkey brain
T1 sequence (Q9GJT6 whole entry): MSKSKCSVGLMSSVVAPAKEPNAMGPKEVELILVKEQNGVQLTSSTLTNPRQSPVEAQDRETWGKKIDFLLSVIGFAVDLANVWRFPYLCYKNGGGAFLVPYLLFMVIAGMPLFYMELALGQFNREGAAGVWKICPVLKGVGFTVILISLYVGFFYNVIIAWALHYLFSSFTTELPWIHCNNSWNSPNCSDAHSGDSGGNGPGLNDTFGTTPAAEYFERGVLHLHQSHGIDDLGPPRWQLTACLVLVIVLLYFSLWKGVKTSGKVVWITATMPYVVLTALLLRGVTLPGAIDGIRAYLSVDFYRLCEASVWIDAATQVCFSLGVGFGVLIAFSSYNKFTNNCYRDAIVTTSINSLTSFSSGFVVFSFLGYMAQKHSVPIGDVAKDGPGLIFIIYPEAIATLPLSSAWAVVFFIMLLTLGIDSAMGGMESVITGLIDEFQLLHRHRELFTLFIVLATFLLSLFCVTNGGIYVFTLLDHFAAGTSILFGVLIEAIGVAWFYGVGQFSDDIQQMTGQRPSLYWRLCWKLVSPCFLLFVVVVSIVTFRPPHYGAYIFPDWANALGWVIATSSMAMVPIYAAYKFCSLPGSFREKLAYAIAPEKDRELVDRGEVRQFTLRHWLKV

[2] = target: dopamine transporter, human caudate nucleus and putamen (Homo sapiens, UniProt Q01959); experiment: [^3 H]CFT binding to homogenates of human caudate nucleus and putamen
Chain of dopamine transporter, human caudate nucleus and putamen (Q01959 whole entry): as the sequence (Q9GJT6 whole entry) above, with M24V, V137I, S194P, G198S, N200D, G201S, P202S counted along it
Description: In order to determine whether [^3 H]CFT labels sites associated with the dopamine transporter, the binding of [^3 H]CFT to homogenates of human caudate nucleus and putamen, was characterized.

[3] = system: [^3 H]CFT binding sites in monkey caudate-putamen; conditions: cited from earlier work; for number of binding components: competition curves; for steepness of competition curve: displacement of [^3 H]CFT
[4] = system: cocaine recognition sites in squirrel monkey brain; experiment: In vitro autoradiography in squirrel monkey brain sections; assay type: binding
Description: To identify the distribution of cocaine recognition sites in the brain, autoradiographic techniques were utilized. Such techniques were particularly appropriate for this purpose because they are 100-1,000 times more sensitive than radioreceptor assays conducted in tissue homogenates. […] Three sequential procedures: parametric studies, in vitro autoradiographic techniques, and ex vivo autoradiographic techniques were conducted in tissue sections of squirrel monkey brains.
After establishing suitable conditions for autoradiography, systematic mapping of cocaine recognition sites were conducted in squirrel monkey brain at nine anterior-posterior levels. Tissue sections were incubated alone, or in the presence of excess (-)-cocaine to determine total and nonspecific binding of [^3 H]CFT, respectively.

[5] = target: T2, cocaine recognition sites in monkey caudate-putamen (Macaca fascicularis, UniProt Q9GJT6); experiment: [^3 H]CFT and [^3 H]cocaine binding in tissue homogenates of monkey caudate-putamen
T2 construct: All studies were conducted in monkey brain caudate-putamen; from tissue; host or cells: monkey brain caudate-putamen homogenates
T2 sequence (Q9GJT6 whole entry): as the sequence (Q9GJT6 whole entry) above
Description: All studies were conducted in monkey brain caudate-putamen for two reasons. […] Second, primates are consistently used to test diagnostic imaging agents and to test for cocaine-like drugs and drug therapies for Parkinson's disease.

[6] = target: T2, cocaine recognition sites in monkey caudate-putamen; conditions: cited from earlier work
[7] = system: cocaine binding sites associated with the dopamine transporter; experiment: Binding in postmortem Parkinson's diseased putamen / caudate-putamen; parameters: species or system human; conditions: tissue homogenates (FIG. 3) or tissue sections
[8] = system: cocaine receptors in squirrel monkey brain; experiment: Ex vivo autoradiography after intravenous administration; assay type: in vivo, squirrel monkeys
Description: From the in vitro autoradiographic studies, two conclusions were drawn: (a) cocaine receptors labelled by [^3 H]CFT distributed primarily to dopamine-rich brain regions and (b) the highly circumscribed distribution and low level of non-specific binding of [^3 H]CFT further supported the development of CFT as a PET imaging ligand for cocaine receptors in vivo. However, as the distribution pattern of a probe in vitro may not necessarily reflect its distribution in vivo, it was necessary to determine whether similar conclusions could be drawn using ex vivo autoradiographic techniques. The ex vivo autoradiographic distribution of [^3 H]CFT was determined following intravenous administration of [^3 H]CFT (1.0 or 2.5 nmol/kg) to squirrel monkeys (FIG. 4B). Brain sections from several A-P levels were exposed to [^3 H]-sensitive film. […] Nevertheless, the ex vivo labeling of brain regions by [^3 H] CFT corresponded closely to the in vitro autoradiographic pattern.
(§1) At the time these studies were completed, a higher affinity iodinated analog of [^3 H]CFT, [^125 I]RTI-55 (i.e., CIT, 2β-carbomethoxy-3β-(4-iodophenyl)tropane; Dupont-NEN), became available. […] This ligand was also tested by ex vivo autoradiography as an imaging probe.

[9] = system: caudate-putamen / striatum cocaine receptors; experiment: PET imaging with [^11 C]CFT
serotonin transporter = conditions: cited from earlier work
[10] = system: sites in the caudate putamen; experiment: [^125 I]RTI-55 labeling of sites in caudate putamen; assay type: binding
Description: as §1

[11] = human caudate nucleus and putamen homogenates
[12] = [^3 H]CFT 1.0 or 2.5 nmol/kg i.v.

For `COC(=O)[C@H]1[C@@H](c2ccc(Cl)cc2)C[C@@H]2CC[C@H]1N2C` [4'b (CCT), 2β-Carbomethoxy-3β-(4-chlorophenyl)tropane], the IC50 [1] was 1.4 ± 0.035 nM.

Work on `COC(=O)[C@H]1[C@@H](c2cccc(Br)c2)C[C@@H]2CC[C@H]1N2C` [4'd (3-CBT), 2β-Carbomethoxy-3β-(3-bromophenyl)tropane] yielded an IC50 [1] of 7.93 ± 0.077 nM.

`COC(=O)[C@H]1[C@@H](c2cccc(I)c2)C[C@@H]2CC[C@H]1N2C` [4'e (3-CIT), 2β-Carbomethoxy-3β-(3-iodophenyl)tropane] showed an IC50 [1] of 27.8 ± 3.05 nM.

`CCC[CH2][Sn]([CH2]CCC)([CH2]CCC)[c]1cccc([C@H]2C[C@@H]3CC[C@H]([C@H]2C(=O)OC)N3C)c1` [4'f, 2β-Carbomethoxy-3β-(3-tributylstannylphenyl)tropane] showed an IC50 [1] of 1080 ± 165 nM.

Work on `COC(=O)[C@H]1[C@@H](c2ccccc2)C[C@@H]2CC[C@H]1N2C` [4'g (WIN 35, 065-2)] yielded an IC50 ([1]; read-out: IC50) of 65 ± 12 nM.

Work on `COC(=O)[C@H]1[C@@H](c2ccc(I)cc2)C[C@@H]2CC[C@H]1N2C` [4'h (RTI-55), 2β-carbomethoxy-3β-(4-iodophenyl)tropane] yielded an IC50 [1] of 1.08 ± 0.06 nM.

With `COC(=O)[C@@H]1[C@H](OC(=O)c2ccccc2)C[C@H]2CC[C@@H]1N2C` [(+)-cocaine] the “rank order of potency for inhibiting [^3 H]CFT binding” value (shortened to “rank order of potency for inhibiting”) [2, 11] was “Lu 19-005>CFT, mazindol, GBR 12909>(-)-cocaine>bupropion>(+)-cocaine”.

In the case of `COC(=O)[C@H]1[C@@H](OC(=O)c2ccccc2)C[C@@H]2CC[C@H]1N2C` [(-)-cocaine], the “rank order of potency for inhibiting” value [2, 11] is given as “Lu 19-005>CFT, mazindol, GBR 12909>(-)-cocaine>bupropion>(+)-cocaine”, the “extent of displacement of [^3 H]CFT” value [3] is given as “full displacement of [^3 H]CFT” and the “number of binding components” value [3] is given as “at least two binding components”. For the same compound, the “steepness of competition curve” value [3] was 0.61-0.89.

In the case of `COC(=O)[C@H]1[C@@H](OC(=O)c2ccccc2)C[C@@H]2CC[C@H]1N2` [(-)-norcocaine], the “extent of displacement of [^3 H]CFT” value [3] is given as “full displacement of [^3 H]CFT”, the “number of binding components” value [3] is given as “at least two binding components” and the “steepness of competition curve” value [3] is given as 0.61-0.89.

For `Fc1ccc(C(OCCN2CCN(CCCc3ccccc3)CC2)c2ccc(F)cc2)cc1` [GBR 12909], the “rank order of potency for inhibiting” value [2] is given as “Lu 19-005>CFT, mazindol, GBR 12909>(-)-cocaine>bupropion>(+)-cocaine”, the “number of binding components” value [3] is given as “a single binding component” and the “steepness of competition curve” value [3] is given as 0.94-1.1.

For `CNC1CC(c2ccc(Cl)c(Cl)c2)c2ccccc21` (stereo not shown) [Lu 19-005], the “number of binding components” value [3] is listed as “a single binding component” and the “steepness of competition curve” value [3] is listed as 0.94-1.1.

In the case of `COC(=O)[C@H]1[C@@H](c2ccc(F)cc2)C[C@@H]2CC[C@H]1N2C` [[^3 H]CFT, 2β-carbomethoxy-3β-(4-fluorophenyl)tropane], the “density of [^3 H]CFT binding” value ([4]; bed nucleus of stria terminalis, ventral tegmental area, medial preoptic area, pineal, hippocampus, thalamic central nuclei) is reported as “Low, though measurable, levels”, the “specific binding as % of total binding” value ([4]; caudate nucleus, putamen, nucleus accumbens, olfactory tubercle) is reported as greater than 90% and the “density of [^3 H]CFT binding” value ([4]; dopamine-rich regions: caudate nucleus, putamen, nucleus accumbens, olfactory tubercle) is reported as “High densities”. The “density of [^3 H]CFT binding” value ([4]; substantia nigra, zona incerta, amygdala, hypothalamus) was “Intermediate densities”, the “density of [^3 H]CFT binding” value ([4]; white matter, cerebellum, globus pallidus, cortical regions) was “Near background levels” and the “character of [^3 H]CFT binding” value [2, 11] was “saturable, stereoselective”. For the same compound, the “affinity relative to [^3 H]cocaine” value [5] was 18 times, the “stereoselective inhibition of binding” value ([6]; by enantiomers of cocaine and pseudococaine and diastereoisomers of WIN 35,065-2) was “inhibited stereoselectively” and the “NaCl requirement for specific binding” value [6] was “NaCl was necessary for specific binding”. The “dissociation rate versus [^3 H]cocaine” value [6] was “considerably slower”, the “non-specific binding versus [^3 H]cocaine” value [6] was “lower than that of [^3 H]cocaine” and the “high-affinity component of total number of sites” value ([6]; high- and low-affinity binding components) was “approximately 10%”. The “Bmax (density of binding sites)” value ([6]; monkey caudate-putamen homogenates) was 388 pmol/g, the Kd ([6]; read-out: K0.50, affinity, monkey caudate-putamen) was 16 nM and the “[^3 H]CFT binding sites in postmortem human Parkinson's diseased caudate-putamen” value [7] was “severely depleted”. The “ex vivo binding compared with in vitro, cortex and thalamus” value [8, 12] was “more prominent binding in vivo than in vitro” and the “ex vivo distribution of binding” value [8, 12] was “caudate, putaman>nucleus accumbens/olfactory tubercla, stria terminalis>substantia nigra>hypothalamus”.

For `COC(=O)[C@H]1[C@@H](c2ccc(F)cc2)C[C@@H]2CC[C@H]1N2C` [[^11 C]CFT, 2β-carbomethoxy-3β-(4-fluorophenyl)tropane], the striatal-to-cerebellar ratio ([9]; 58 min) was greater than 4.0, the “CFT binding in MPTP-treated Parkinsonian monkeys” value ([9]; MPTP-treated Parkinsonian) was “reduced” and the uptake in caudate-putamen ([9]; PET, 90 min imaging) was “high uptake”. For the same compound, the “CFT binding in asymptomatic monkeys” value ([9]; asymptomatic) was “depletion was found”.

In the case of `COC(=O)[C@H]1[C@@H](c2ccc(I)cc2)C[C@@H]2CC[C@H]1N2C` [[^125 I]RTI-55, 2β-carbomethoxy-3β-(4-iodophenyl)tropane], the additional sites labeled (serotonin transporter) is given as “associated with the serotonin transporter”, the “potency of labeling caudate putamen sites relative to [^3 H]CFT” value [10] is given as “approximately 10 fold” and the ex vivo density ([8]; caudate-putamen) is given as “highest densities”. The ex vivo density ([8]; thalamus, cortex and brain stem nuclei) was “moderately high densities”.

In the case of `CC(NC(C)(C)C)C(=O)c1cccc(Cl)c1` (stereo not shown) [bupropion], the “rank order of potency for inhibiting” value [2] is given as “Lu 19-005>CFT, mazindol, GBR 12909>(-)-cocaine>bupropion>(+)-cocaine”, the “number of binding components” value [3] is given as “a single binding component” and the “steepness of competition curve” value [3] is given as 0.94-1.1.

With `OC1(c2ccc(Cl)cc2)c2ccccc2C2=NCCN21` (stereo not shown) [mazindol] the “rank order of potency for inhibiting” value [2] was “Lu 19-005>CFT, mazindol, GBR 12909>(-)-cocaine>bupropion>(+)-cocaine” and the “displacement of bound [^11 C]CFT from striatum” value ([9]; cynomolgus monkey, in vivo) was “displaced bound [^11 C]CFT from the striatum”.
